# Where a SMILES comes first, the peptide text is derived from it. The star is where a group is joined. Benzoyl(4-B(OH)2) = O=C(c1ccc(B(O)O)cc1)*; Bz = O=C(c1ccccc1)*
# Key:
# Assay type in all cases: functional
# Staphylococcus aureus = test: Antimicrobial activity against Staphylococcus aureus ATCC 6538 measured on day 4 by broth microdilution method; details: ATCC 6538, 96 h
# Aspergillus niger = test: Antifungal activity against Aspergillus niger measured on day 4 by broth microdilution method; details: 96 h
# Candida albicans [1] = test: Antifungal activity against Candida albicans measured on day 4 by broth microdilution method; details: 96 h
# Escherichia coli = test: Antimicrobial activity against Escherichia coli C ATCC 13706 measured on day 4 by broth microdilution method; details: C ATCC 13706, 96 h
# [2] = tested on: Mycolicibacterium smegmatis; test: Antimicrobial activity against Mycobacterium smegmatis ATCC 607 measured on day 4 by broth microdilution method; details: ATCC 607, 96 h
# Candida albicans [3] = test: Antifungal activity against Candida albicans VT1406 in cell suspension after 24 hrs by XXT/PMS dye based assay; details: VT1406, 24 h
# Candida albicans [4] = test: Antibiofilm activity against Candida albicans VT1406 after 24 hrs by XXT/PMS dye based assay; details: VT1406, 24 h
# Saccharomyces cerevisiae = test: Induction of membrane lysis activity in Saccharomyces cerevisiae assessed as maltase release at MIC after 60 mins relative to control
# Candida albicans [5] = test: Induction of membrane lysis in Candida albicans assessed as maltase release at MIC after 60 mins relative to control
Compound,MIC (Staphylococcus aureus),MIC (Aspergillus niger),MIC (Candida albicans [1]),MIC (Escherichia coli),MIC [2],MIC (Candida albicans [3]),MIC (Candida albicans [4]),Activity (Saccharomyces cerevisiae),Activity (Candida albicans [5])
C[C@@H]1[C@H](O)[C@@H](C)/C=C/C=C/C=C/C=C/C=C/C=C/C=C/[C@H](O[C@@H]2O[C@H](C)[C@@H](O)[C@H](N)[C@@H]2O)C[C@@H]2O[C@](O)(C[C@@H](O)C[C@@H](O)[C@H](O)CC[C@@H](O)C[C@@H](O)CC(=O)O[C@H]1C)C[C@H](O)[C@H]2C(=O)O [AMPHOTERICIN B],,,,,,0.25 µg/mL,0.25 µg/mL,,
NCCCC[C@H](NC(=O)[C@H](CCCCNC(=O)c1ccccc1)NC(=O)[C@H](CCCCNC(=O)c1ccccc1)NC(=O)[C@H](CCCCN)NC(=O)[C@H](CCCCN)NC(=O)[C@H](CCCCN)NC(=O)[C@H](CCCCN)NC(=O)[C@H](CCCCN)NC(=O)[C@@H](N)CCCCN)C(=O)N[C@@H](Cc1ccc(O)cc1)C(=O)O (H-KKKKKKK(Bz)K(Bz)KY-OH),62.5 µg/mL,250 µg/mL,1 µg/mL,16 µg/mL,32 µg/mL,,,,
CC(C)C[C@H](NC(=O)[C@H](CC(C)C)NC(=O)[C@H](CCCCN)NC(=O)[C@H](CCCCNC(=O)c1ccc(B(O)O)cc1)NC(=O)[C@H](CCCCN)NC(=O)[C@H](CCCCN)NC(=O)[C@H](CCCCNC(=O)c1ccc(B(O)O)cc1)NC(=O)[C@@H](N)CCCCN)C(=O)N[C@@H](CCCCN)C(=O)N[C@@H](Cc1ccc(O)cc1)C(=O)O (H-KK(Benzoyl(4-B(OH)2))KKK(Benzoyl(4-B(OH)2))KLLKY-OH),62.5 µg/mL,125 µg/mL,16 µg/mL,16 µg/mL,62.5 µg/mL,,,,
CC(C)C[C@H](NC(=O)[C@H](CCCCN)NC(=O)[C@H](CC(C)C)NC(=O)[C@H](CCCCN)NC(=O)[C@H](CCCCN)NC(=O)[C@H](CC(C)C)NC(=O)[C@@H](N)CCCCN)C(=O)N[C@@H](CCCCN)C(=O)N[C@@H](CCCCNC(=O)c1ccc(B(O)O)cc1)C(=O)N[C@@H](Cc1ccc(O)cc1)C(=O)O (H-KLKKLKLKK(Benzoyl(4-B(OH)2))Y-OH),62.5 µg/mL,125 µg/mL,4 µg/mL,16 µg/mL,32 µg/mL,,,,
Clc1ccc(COC(Cn2ccnc2)c2ccc(Cl)cc2Cl)c(Cl)c1 (stereo not drawn) [MICONAZOLE],,,,,,1 µg/mL,4 µg/mL,,
CC(C)C[C@H](NC(=O)[C@H](CCCCN)NC(=O)[C@H](CCCCN)NC(=O)[C@H](CCCCN)NC(=O)[C@H](CCCCN)NC(=O)[C@H](CCCCN)NC(=O)[C@H](CCCCN)NC(=O)[C@@H](N)CCCCN)C(=O)N[C@@H](CCCCNC(=O)c1ccccc1)C(=O)N[C@@H](Cc1ccc(O)cc1)C(=O)O (H-KKKKKKKLK(Bz)Y-OH),62.5 µg/mL,125 µg/mL,1 µg/mL,8 µg/mL,32 µg/mL,,,1.8%,4%

# Continued, in another order:
MIC (Staphylococcus aureus),MIC (Aspergillus niger),MIC (Candida albicans [1]),MIC (Escherichia coli),MIC [2],Compound,MIC (Candida albicans [3]),MIC (Candida albicans [4]),Activity (Saccharomyces cerevisiae),Activity (Candida albicans [5])
32 µg/mL,125 µg/mL,2 µg/mL,16 µg/mL,32 µg/mL,CC(C)C[C@H](NC(=O)[C@H](CCCCN)NC(=O)[C@H](CCCCN)NC(=O)[C@H](CC(C)C)NC(=O)[C@@H](N)CCCCN)C(=O)N[C@@H](CCCCN)C(=O)N[C@@H](CCCCN)C(=O)N[C@@H](CCCCN)C(=O)N[C@@H](CCCCNC(=O)c1ccc(B(O)O)cc1)C(=O)N[C@@H](Cc1ccc(O)cc1)C(=O)O (H-KLKKLKKKK(Benzoyl(4-B(OH)2))Y-OH),,,,
32 µg/mL,125 µg/mL,4 µg/mL,32 µg/mL,62.5 µg/mL,CC(C)C[C@H](NC(=O)[C@H](CCCCN)NC(=O)[C@H](CCCCN)NC(=O)[C@H](CCCCNC(=O)c1ccccc1)NC(=O)[C@H](CCCCN)NC(=O)[C@H](CCCCN)NC(=O)[C@H](CCCCNC(=O)c1ccccc1)NC(=O)[C@@H](N)CCCCN)C(=O)N[C@@H](CCCCNC(=O)c1ccc(B(O)O)cc1)C(=O)N[C@@H](Cc1ccc(O)cc1)C(=O)O (H-KK(Bz)KKK(Bz)KKLK(Benzoyl(4-B(OH)2))Y-OH),,,0.4%,18%
32 µg/mL,62.5 µg/mL,4 µg/mL,8 µg/mL,32 µg/mL,CC(C)C[C@H](NC(=O)[C@H](CCCCN)NC(=O)[C@H](CCCCN)NC(=O)[C@H](CCCCN)NC(=O)[C@H](CCCCN)NC(=O)[C@H](CCCCN)NC(=O)[C@@H](N)CCCCN)C(=O)N[C@@H](CCCCNC(=O)c1ccc(B(O)O)cc1)C(=O)N[C@@H](CCCCNC(=O)c1ccc(B(O)O)cc1)C(=O)N[C@@H](Cc1ccc(O)cc1)C(=O)O (H-KKKKKKLK(Benzoyl(4-B(OH)2))K(Benzoyl(4-B(OH)2))Y-OH),,,,

# From ChEMBL document CHEMBL4118096, “Branched Peptides: Acridine and Boronic Acid Derivatives as Antimicrobial Agents” (ACS Med Chem Lett, 2017)
